Like-named read-outs stand apart in the source and are kept apart here.
Legend:
[1] = tested on: Epstein–Barr virus P3HR-1; experiment: EBV lytic assay in TPA-induced P3HR-1 cells, qPCR; type: cell-based; conditions: human gammaherpesvirus 4, P3HR-1; Table S1; read-out: antiviral EC50, EBV
KSHV = tested on: KSHV; set-up: method as in ref 35, 38 (a number printed in a supplementary file, which may have a reference list of its own: not looked up in the article's list); conditions: Table S1; read-out: antiviral EC50, KSHV; cited from earlier work
HAdV = tested on: HAdV; set-up: method as in ref 35, 38 (a number printed in a supplementary file, which may have a reference list of its own: not looked up in the article's list); conditions: Table S1; read-out: antiviral EC50, HAdV; cited from earlier work
in vitro = conditions: human
EHV-1-GFP = EHV-1-GFP antiviral assay, GFP fluorometry; type: cell-based, equine herpesvirus 1; conditions: COS-7
MCMV = tested on: MCMV; set-up: method as in ref 35, 38 (a number printed in a supplementary file, which may have a reference list of its own: not looked up in the article's list); conditions: Table S1; read-out: antiviral EC50, MCMV; cited from earlier work
JCPyV = tested on: JCPyV; set-up: method as in ref 35, 38 (a number printed in a supplementary file, which may have a reference list of its own: not looked up in the article's list); conditions: Table S1; read-out: antiviral EC50, JCPyV; cited from earlier work
RCMV = tested on: RCMV; set-up: method as in ref 35, 38 (a number printed in a supplementary file, which may have a reference list of its own: not looked up in the article's list); conditions: Table S1; read-out: antiviral EC50, RCMV; cited from earlier work
ChCMV = tested on: ChCMV; set-up: method as in ref 35, 38 (a number printed in a supplementary file, which may have a reference list of its own: not looked up in the article's list); conditions: Table S1; read-out: antiviral EC50, ChCMV; cited from earlier work
HHV-6A = tested on: HHV-6A; set-up: method as in ref 35 (a number printed in a supplementary file, which may have a reference list of its own: not looked up in the article's list); conditions: Table S1; J-Jhan cells; read-out: antiviral EC50, HHV-6A (J-Jhan); cited from earlier work
[2] = Neutral Red uptake cell viability assay, Caco-2; conditions: human
[3] = Neutral Red uptake cell viability assay, HFF; conditions: human
MHV-68-Luc = MHV-68-Luc luciferase reporter assay; type: cell-based, murine herpesvirus 68; conditions: Murine herpesvirus
VZV = tested on: VZV; set-up: method as in ref 35, 38 (a number printed in a supplementary file, which may have a reference list of its own: not looked up in the article's list); conditions: Table S1; read-out: antiviral EC50, VZV; cited from earlier work
[4] = Neutral Red uptake cell viability assay, COS-7; conditions: African green monkey
SARS-CoV-2 d6-YFP [5] = experiment: microbe, parasite or virus in culture
HCMV = tested on: HCMV; set-up: method as in ref 35, 38 (a number printed in a supplementary file, which may have a reference list of its own: not looked up in the article's list); conditions: Table S1; read-out: antiviral EC50, HCMV; cited from earlier work
SARS-CoV-2 d6-YFP [6] = tested on: SARS-CoV-2 d6-YFP
EHV-1 = experiment: EHV-1-specific qPCR of virus release into culture medium; type: cell-based, equine herpesvirus 1
[7] = Neutral Red uptake cell viability assay, Vero; conditions: African green monkey, CC50, Vero (Fig 4F)
vaccinia virus VV IHD-5 = experiment: microbe, parasite or virus in culture; type: cell-based; conditions: Orthopoxvirus vaccinia, read-out: antiviral EC50, VV
HHV-6A-GFP = experiment: HHV-6A plaque reduction assay in HFFs; conditions: Human betaherpesvirus 6A
[8] = Neutral Red uptake / Alamar Blue cell viability assay, 293T; conditions: human
HSV-1 = tested on: HSV-1; set-up: method as in ref 35, 38 (a number printed in a supplementary file, which may have a reference list of its own: not looked up in the article's list); conditions: Table S1; read-out: antiviral EC50, HSV-1; cited from earlier work
RhCMV = tested on: RhCMV; set-up: method as in ref 35, 38 (a number printed in a supplementary file, which may have a reference list of its own: not looked up in the article's list); conditions: Table S1; read-out: antiviral EC50, RhCMV; cited from earlier work
[9] = Neutral Red uptake cell viability assay, MEF; conditions: mouse
Caco-2 cells = experiment: Neutral Red uptake cell viability assay, Caco-2; conditions: read-out: mean CC50; Caco-2 (Fig 7D)

Question: For `CN(C)C(=O)Cn1cc(-c2ccc(-c3cncc4ccccc34)cc2)cn1` [BI-1347], which EC50 [1] is on record?
Answer: The EC50 was 5500 ± 4200 nM.

Question: And the EC50 (KSHV)?
Answer: Its EC50 is 300 ± 600 nM.

Question: What about the EC50 (HAdV) of the same compound?
Answer: Its EC50 is 50 ± 100 nM.

Question: What about the CC50 (in vitro) of the same compound?
Answer: The CC50 was > 100000 nM.

Question: What about the EC50 (EHV-1-GFP) of the same compound?
Answer: The EC50 was 80 nM.

Question: And the EC50 (MCMV)?
Answer: Its EC50 is 20 ± 10 nM.

Question: What about the EC50 (JCPyV) of the same compound?
Answer: The EC50 was 700 ± 1600 nM.

Question: And the EC50 (RCMV)?
Answer: Its EC50 is 2 ± 4 nM.

Question: What about the EC50 (ChCMV) of the same compound?
Answer: Its EC50 is 10 ± 20 nM.

Question: And the EC50 (HHV-6A)?
Answer: Its EC50 is > 50000 nM.

Question: And the CC50 at 3 d [2]?
Answer: The CC50 at 3 d was > 100000 nM.

Question: What about the CC50 ([3]; CC50, HFF, listed with qPCR / HFF (Fig 1E)) of the same compound?
Answer: Its CC50 is > 50000 nM.

Question: What about the CC50 ([3]; mean CC50, HFF, HHV-6A assay conditions (Fig 2D)) of the same compound?
Answer: The CC50 was > 100000 nM.

Question: And the EC50 (MHV-68-Luc; COS-7, read-out: antiviral EC50, MHV-68 (COS-7), Table S1, COS-7)?
Answer: Its EC50 is 0.1 ± 0.1 nM.

Question: And the EC50 (MHV-68-Luc; Vero, read-out: antiviral EC50, MHV-68 (Vero), Table S1, Vero)?
Answer: Its EC50 is 0.5 ± 0.03 nM.

Question: And the EC50 (MHV-68-Luc; read-out: antiviral EC50, MHV-68 (HFF), Table S1, HFF)?
Answer: Its EC50 is 40 ± 20 nM.

Question: And the EC50 (MHV-68-Luc; read-out: antiviral EC50, MHV-68 (MEF), Table S1, MEF)?
Answer: Its EC50 is 6 ± 2 nM.

Question: What about the EC50 (VZV) of the same compound?
Answer: The EC50 was 26000 ± 10000 nM.

Question: And the CC50 at 4 d ([4]; CC50, COS-7 (Fig 4F))?
Answer: The CC50 at 4 d was > 100000 nM.

Question: What about the CC50 at 4 d ([4]; CC50, COS-7, listed with GFP / COS-7 (Fig 1E)) of the same compound?
Answer: Its CC50 at 4 d is > 50000 nM.

Question: And the CC50 at 4 d ([4]; CC50, COS-7, listed with qPCR / COS-7 (Fig 1E))?
Answer: Its CC50 at 4 d is > 50000 nM.

Question: And the EC50 (SARS-CoV-2 d6-YFP [5]; Severe acute respiratory syndrome coronavirus 2, Caco-2, 30 h, read-out: Antiviral mean EC50 based on YFP measurements)?
Answer: Its EC50 is ≥ 15400 nM.

Question: And the EC50 (SARS-CoV-2 d6-YFP [5]; Severe acute respiratory syndrome coronavirus 2, Caco-2, read-out: antiviral EC50, SARS-CoV-2)?
Answer: Its EC50 is 22800 ± 3200 nM.

Question: What about the EC50 (HCMV) of the same compound?
Answer: Its EC50 is 0.9 ± 0.7 nM.

Question: What about the “CDK8 inhibitor sensitivity of SARS-CoV-2 in Caco-2 cells” value (SARS-CoV-2 d6-YFP [6]; in words) of the same compound?
Answer: Its value is “low level of sensitivity”.

Question: What about the EC50 (EHV-1; EHV-1, qPCR / COS-7, read-out: EC50) of the same compound?
Answer: The EC50 was < 3 nM.

Question: And the EC50 (EHV-1; Equus caballus)?
Answer: Its EC50 is 20 ± 50 nM.

Question: What about the EC50 (EHV-1; Equus caballus, read-out: antiviral EC50, EHV-1 (HFF)) of the same compound?
Answer: The EC50 was 30 ± 30 nM.

Question: What about the CC50 at 7 d [7] of the same compound?
Answer: The CC50 at 7 d was > 100000 nM.

Question: What about the EC50 (vaccinia virus VV IHD-5) of the same compound?
Answer: The EC50 was > 50000 nM.

Question: And the EC50 (HHV-6A-GFP; read-out: Antiviral mean EC50 based on plaque assay measurements)?
Answer: Its EC50 is 200 ± 200 nM.

Question: And the EC50 (HHV-6A-GFP; read-out: antiviral EC50, HHV-6A (HFF))?
Answer: The EC50 was 300 ± 200 nM.

Question: And the CC50 at 2 d [8]?
Answer: The CC50 at 2 d was 93000 ± 5000 nM.

Question: And the EC50 (HSV-1)?
Answer: The EC50 was > 50000 nM.

Question: What about the EC50 (RhCMV) of the same compound?
Answer: The EC50 was 0.4 ± 0.5 nM.

Question: What about the CC50 at 7 d [9] of the same compound?
Answer: The CC50 at 7 d was > 100000 nM.

Question: Which CC50 (Caco-2 cells) does the source give for `O=c1nc(NO)ccn1[C@@H]1O[C@H](CO)[C@@H](O)[C@H]1O` [EIDD-1931] here?
Answer: Its CC50 is > 100000 nM.

Question: What about the EC50 (SARS-CoV-2 d6-YFP [6]; read-out: Antiviral mean EC50 based on YFP measurements, SARS-CoV-2 d6-YFP, Caco-2, […]) of the same compound?
Answer: The EC50 was 4100 ± 1400 nM.

Reference: PMC12567398, “New Assay Systems to Characterize the Broad-Spectrum Antiherpesviral and Non-Herpesviral Activity of Cyclin-Dependent Kinase (CDK) 8 Inhibitors” (Pharmaceuticals, 2025)
